# Experimental data from publication PMC6832524, “A Nature-Inspired Design Yields a New Class of Steroids Against Trypanosomatids” (Molecules, 2019).
# Where two headings read alike, the source gives them in different places.
# Tests used:
# [1] = solubility (qualitative); assay type: physicochemical; details: for solubility in the conditions of the mammalian cell assay, in words: maximum dose tested 25 µM
# [2] = system: T. cruzi epimastigotes, Tulahuen 2 strain (genotype TcVI); assay: in vitro anti-T. cruzi activity, epimastigote growth (absorbance 600 nm); assay type: cell-based, Trypanosoma cruzi
# Description: Control parasites were cultivated in 0.4% DMSO. Each concentration of the compound was evaluated in duplicate.
# [3] = system: L. infantum .uy (parasites isolated from two dogs in the first Leishmaniasis outbreak in Uruguay); assay: in vitro activity against L. infantum isolated from dogs in Uruguay; assay type: cell-based, Leishmania infantum; details: for IC50: Leishmania infantum, read-out: IC50 ± %SD (µM) L. infantum .uy
# Description: Compounds were dissolved in dimethylsulfoxide (DMSO).
# For assessing the amastigote form of all Leishmania strains were cultured in the RPMI described above. Parasites were seeded at 1 × 10^6 cells/mL and at each time point counted at least five times to obtain a growth curve. […] Control conditions of parasites without drug (100% growth) and medium without parasites were included. After 72 h at 28 °C parasite viability was determined by the resazurin method described. Infection with L. infantum. THP-1 monocytes (ATCC®TIB-202™) were grown following ATCC recommendations and seeded at 30,000 cells/well onto 18-mm round glass coverslips in 12 wells. For stimulation cells were incubated with 100 nM of PMA for 48 h, PMA was washed and cells left with growth media for 24 h more after incubation with parasites. 30,000 parasites/well were added and left to interact. After 48 h, coverslips were washed with PBS, fixed with 95% (v/v) ethanol, and stained with Fluoroshield™ with DAPI (Sigma). Infectivity was assessed considering invasion and replication capacity counting infected cells and parasites per infected cell, respectively. Infectivity index calculation = (% of infected cells X (amastigotes per cell))/number of total counted cells. Image acquisition was made with a Leica TCS-SP5 laser scanning confocal microscope (Leica Microsystems GmbH, Wetzlar, Germany) using the LASAF v.2 software (Leica Microsystems, Wetzlar, Germany) and observed using a 356 nm laser excitation line and an emission bandwidth from 461 nm under a 20× water immersion objective. Further image analysis, including quantitation and processing of figures were made using Fiji (http://fiji.sc/).
# [4] = system: J774.1 murine macrophages; assay: nonspecific cytotoxicity on mammalian cells, MTT; assay type: cell-based; details: for IC50: Mus musculus, J774.1, 48 h, MTT, read-out: IC50 ± SD (µM) Murine Macrophages; for SI J774.1/T. cruzi: ratio IC50 murine macrophages / IC50 T. cruzi epimastigotes; for SI J774.1/L. amazonensis: ratio IC50 murine macrophages / IC50 L. amazonensis promastigotes
# [5] = system: L. infantum (MHOM/BR/2002/LPC-RPV) promastigotes; assay: in vitro anti-Leishmania activity, promastigotes, resazurin; assay type: cell-based, Leishmania infantum
# [6] = system: promastigotes L. braziliensis/ L. amazonensis; assay: in vitro anti-Leishmania activity, promastigotes (Table 1S); assay type: cell-based; details: read-out: IC50 ± %SD (µM) promastigotes L. braziliensis/ L. amazonensis
# [7] = system: L. infantum .uy (parasites isolated from two dogs in the first Leishmaniasis outbreak in Uruguay); assay: in vitro activity against L. infantum isolated from dogs in Uruguay; assay type: cell-based, Leishmania infantum; details: read-out: IC50± %SD (µM) promastigotes L. infantum uy*p/c
# [8] = system: L. infantum, L. braziliensis, L. amazonensis promastigotes and T. cruzi epimastigotes; assay: phenotypic screening against parasites in vitro (overall statements)
# Description: For the in vitro anti-T. cruzi activity, we used epimastigotes of the Tulahuen 2 strain (genotype TcVI) grown in an axenic milieu (BHI-Tryptose). Cells from a 5–7-days-old culture were inoculated in fresh culture milieu to give an initial concentration of 10^6 cells/mL. The absorbance at 600 nm of the cells in culture was measured every day. […] Control parasites were cultivated in 0.4% DMSO. Each concentration of the compound was evaluated in duplicate. At five days, the absorbance of the culture was measured and compared to the control and the IC50 values calculated for each compound using OriginLab8.5® sigmoidal regression.
# [9] = in vivo acute oral toxicity (OECD up and down); details: male, B6D2F1, mouse, 2000 mg/kg
# Description: Briefly, healthy young adult male B6D2F1 mice (30 days old, 25 to 30 g) were used in this study. Initially, the compound was dissolved in the vehicle described above (3.4 section) and was administered at 2000 mg/kg, by orogastric cannula, to one animal. The animal was fasted, maintained, and observed for 48 h. If the mouse survives, another animal receives the same dose, and 48 h later, a third animal. If there are no toxicity signs the experiment is finished 14 days after administration, with the euthanasia of the animals according to the OECD guidelines. Observations of the general status of the organs were performed after sacrifice.
# [10] = system: L. amazonensis (promastigotes); assay: in vitro anti-Leishmania activity, promastigotes, resazurin; assay type: cell-based; details: maximum dose tested 25 µM, read-out: IC50 ± %SD (µM) L. amazonensis
# [11] = system: T. cruzi blood trypomastigotes of the Y strain; assay: in vivo anti-T. cruzi study (acute Chagas model); design: species or system Trypanosoma cruzi; details: BALB/c mice, 50 mg/kg/day oral for 14 days; for Number of Parasites (Chagas): peak of parasitemia; for % of Reduction (Chagas): reduction of parasitemia vs control
# [12] = system: L. infantum amastigotes in human macrophages (THP-1); assay: human macrophages infected with L. infantum (amastigotes), infectivity index; assay type: cell-based; details: Leishmania infantum, two strains of L. infantum (reference strain and isolated from dogs)
# [13] = system: L. amazonensis (IFLA/BR/1967/PH8); assay: in vivo anti-Leishmania study in cutaneous mice model; design: species or system Leishmania amazonensis; details: BALB/c mice, 50 mg/kg oral
# [14] = system: primary culture of macrophages from mice bone marrow; assay: cytotoxicity on primary culture of macrophages, MTT; assay type: cell-based; details: 25 µM, 48 h, compared with J774.1
# [15] = liver fraction stability study (TLC); assay type: in vitro ADME; details: rat liver fractions, 400 µM, 37 °C, 4 h
# [16] = Trypanosoma cruzi, TULAHUEN, epimastigotes, maximum dose tested 25 µM, read-out: IC50 ± %SD (µM) T. cruzi
# [17] = Leishmania infantum, promastigotes, maximum dose tested 25 µM, read-out: IC50 ± %SD (µM) L. infantum
# [18] = Table 1S, one value printed for p/c
# [19] = Table 1S, read-out: IC50 ± %SD (µM) epimastigotes T. cruzi
# [20] = Table 1S, read-out: IC50 ± %SD (µM) promastigotes L. infantum
# [21] = Trypanosoma cruzi, TULAHUEN, Table 1S, read-out: IC50 ± %SD (µM) epimastigotes T. cruzi
smiles,measurement,setting,value
"C/C(=N\NC(=S)Nc1ccccc1)[C@H]1CC[C@H]2[C@@H]3CC=C4CC(O)CC[C@]4(C)[C@H]3CC[C@]12C (stereo partly drawn) [Compound 10, 1-(3β-Hydroxy-pregn-5-ene-20E-ylidene)-4-phenylthiosemicarbazone]","solubility in the conditions of the mammalian cell assay, in words",[1],poorly soluble
same,IC50,[2]; [16],25 ± 3 µM
same,IC50,[3],> 25 µM
same,melting point,,215 to 217 °C
same,IC50,[4],25 ± 5 µM
same,SI J774.1/T. cruzi,[4],1
same,IC50,[5]; [17],> 25 µM
"C[C@]12CC[C@H]3[C@@H](CC=C4CC(O)CC[C@@]43C)[C@@H]1CC[C@@H]2C(=O)/C=C/C=C/c1cccs1 (stereo partly drawn) [Compound 17, (2E,4E)-5-(thiofen-2-yl)-1-((8S,9S,10R,13S,14S,17S)-3-hydroxy-10,13-dimethyl-2,3,4,7,8,9,10,11,12,13,14,15,16,17-tetradecahydro-1H-cyclopenta[a]phenanthren-17-yl)penta-2,4-dien-1-one]",IC50,[6],> 25 µM
same,IC50,[7]; [18],> 25 µM
same,IC50,[2]; [19],> 25 µM
same,IC50,[5]; [20],> 25 µM
"C/C(=N\NC(N)=S)[C@H]1CC[C@H]2[C@@H]3CC=C4CC(O)CC[C@]4(C)[C@H]3CC[C@]12C (stereo partly drawn) [Compound 8, 1-(3β-Hydroxy-pregn-5-ene-20E-ylidene)thiosemicarbazone]",IC50,[6],< 22 µM
same,IC50,"[8]; Trypanosoma cruzi, read-out: IC50 in vitro (abstract)",0.2 µM
same,times more active than Miltefosine in vitro,[8]; against Leishmania,five times more active
same,times more active than Nfx and Bnz in vitro,[8]; against T. cruzi,35
same,"antiparasitic activity (active: IC50<25 µM), in words","[8]; all parasites/strains tested, maximum dose 25 µM",consistently active against all strains
same,LD50 at 14 days,[9],> 2000 mg/kg
same,"solubility in water, in words",[1],poor solubility in water
same,IC50,[10],< 22 µM
same,IC50,[2]; [16],1.2 ± 0.3 µM
same,IC50,[3],0.2 ± 0.1 µM
same,% of Survivals (Chagas),[11],100%
same,Number of Parasites (Chagas),[11],(0.14 ± 0.03) × 10^6 per mL blood
same,% of Reduction (Chagas),[11],62%
same,IC50,[12],< 0.2 µM
same,% of Reduction (Leishmaniasis),[13],27%
same,% of Survivals (Leishmaniasis),[13],100%
same,Number of Parasites (Leishmaniasis),[13]; parasites in the lesion at the end of the experiment,(21 ± 4) × 10^6
same,"cytotoxicity on primary culture of macrophages, in words",[14],the same results were obtained
same,IC50,[4],50 ± 3 µM
same,SI J774.1/L. amazonensis,[4],>2
same,SI J774.1/L. infantum,[4]; ratio IC50 murine macrophages / IC50 L. infantum promastigotes,250
same,SI J774.1/T. cruzi,[4],42
same,metabolic stability in cytosolic and microsomal liver fraction,[15],stable
same,IC50,[5]; [17],0.2 ± 0.1 µM
"CC(/C=C/C(=O)[C@H]1CC[C@H]2[C@@H]3CC=C4CC(O)CC[C@]4(C)[C@H]3CC[C@]12C)=C\c1ccco1 (stereo partly drawn) [Compound 16, (2E,4E)-5-(furan-2-yl)-1-((8S,9S,10R,13S,14S,17S)-3-hydroxy-10,13-dimethyl-2,3,4,7,8,9,10,11,12,13,14,15,16,17-tetradecahydro-1H-cyclopenta[a]phenanthren-17-yl)-4-methylpenta-2,4-dien-1-one]",IC50,[6],23 ± 3 µM
same,IC50,[7]; Leishmania infantum,> 25 µM
same,IC50,[2]; [21],> 25 µM
same,melting point,,110 to 113 °C
same,IC50,"[5]; Leishmania infantum, Table 1S, read-out: IC50 ± %SD (µM) promastigotes L. infantum",> 25 µM
CSc1ccc(/C=C/C(=O)[C@H]2CCC3C4CC=C5C[C@@H](O)CC[C@]5(C)C4CC[C@@]32C)cc1 (stereo partly shown) [Compound 15],IC50,[6],> 25 µM
same,IC50,[7]; [18],> 25 µM
same,IC50,[2]; [19],> 25 µM
same,IC50,[5]; [20],> 25 µM
"O=C(Cn1ccnc1[N+](=O)[O-])NCc1ccccc1 [Benznidazole, reference compound]",% of Survivals (Chagas),[11],100%
same,Number of Parasites (Chagas),[11],(0.01 ± 0.01) × 10^6 per mL blood
same,% of Reduction (Chagas),[11],96%
same,IC50,[4],400 ± 4 µM
same,SI J774.1/T. cruzi,[4],57
"C=CCNC(=S)N/N=C(\C)[C@H]1CC[C@H]2[C@@H]3CC=C4CC(O)CC[C@]4(C)[C@H]3CC[C@]12C (stereo partly drawn) [Compound 9, 1-(3β-Hydroxy-pregn-5-ene-20E-ylidene)-4-Allylthiosemicarbazone]","solubility in the conditions of the mammalian cell assay, in words",[1],poorly soluble
same,IC50,[2]; [21],7.8 µM
same,IC50,[2]; [16],8 ± 2 µM
same,"active against the strains isolated from Uruguayan dogs, in words",[3],not
same,IC50,[3],> 25 µM
same,melting point,,229 to 233 °C
same,IC50,[4],25 ± 2 µM
same,SI J774.1/T. cruzi,[4],3
same,"activity against Leishmania infantum from Fiocruz collection, in words",[5],active
same,IC50,[5]; [17],> 25 µM
C[C@]12CC[C@H]3[C@@H](CC=C4CC(O)CC[C@@]43C)[C@@H]1CC[C@@H]2C(=O)/C=C/c1ccccc1Cl (stereo partly shown) [Compound 2],IC50,[6],23 ± 5 µM
same,IC50,[10],23 ± 5 µM
same,IC50,[2]; [16],12 ± 3 µM
same,"active against the strains isolated from Uruguayan dogs, in words",[3],not
same,IC50,[3],> 25 µM
same,melting point,,149 to 151 °C
same,IC50,[4],100 ± 10 µM
same,SI J774.1/L. amazonensis,[4],4
same,SI J774.1/T. cruzi,[4],8
same,"activity against Leishmania infantum from Fiocruz collection, in words",[5],active
same,IC50,[5]; [17],> 25 µM
